The target of series [1] is T1, heparinase II (Pedobacter heparinus, UniProt C6XZB6).
T1 sequence (C6XZB6 26-772): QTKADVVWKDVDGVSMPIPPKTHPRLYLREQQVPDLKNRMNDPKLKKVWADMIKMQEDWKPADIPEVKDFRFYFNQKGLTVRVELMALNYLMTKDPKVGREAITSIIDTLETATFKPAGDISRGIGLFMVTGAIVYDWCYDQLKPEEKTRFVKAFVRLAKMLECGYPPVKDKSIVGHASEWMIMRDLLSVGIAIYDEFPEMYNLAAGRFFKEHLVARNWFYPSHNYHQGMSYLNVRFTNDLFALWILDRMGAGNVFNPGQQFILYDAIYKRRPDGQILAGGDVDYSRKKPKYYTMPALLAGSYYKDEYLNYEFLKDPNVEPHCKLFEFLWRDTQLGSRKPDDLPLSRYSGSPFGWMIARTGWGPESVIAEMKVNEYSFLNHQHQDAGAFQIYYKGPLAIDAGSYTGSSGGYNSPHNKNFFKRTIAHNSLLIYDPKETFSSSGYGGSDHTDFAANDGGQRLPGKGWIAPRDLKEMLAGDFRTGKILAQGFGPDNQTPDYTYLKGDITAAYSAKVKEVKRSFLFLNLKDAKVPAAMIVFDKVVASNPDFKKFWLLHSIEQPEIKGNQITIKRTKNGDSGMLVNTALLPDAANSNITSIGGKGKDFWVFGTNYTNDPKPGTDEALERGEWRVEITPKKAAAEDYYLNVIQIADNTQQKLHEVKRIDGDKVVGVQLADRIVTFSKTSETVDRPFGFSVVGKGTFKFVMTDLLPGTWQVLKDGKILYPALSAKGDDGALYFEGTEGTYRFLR
In words: DEPC inactivation of heparinase II and reactivation with hydroxylamine. The settings on record: for kinact/KI: read-out: second-order rate constant of inactivation (converted); for initial activity recovered by DEPC-modified enzyme: 500 mM hydroxylamine. The format is biochemical, Flavobacterium heparinum.

In series [2] the target is T1, heparinase II. In words: pCMB modification and inactivation of heparinase II. In kind it is biochemical, Flavobacterium heparinum. The text has this:
(§1) Heparinase II Activity Assay. Native heparinase II from Flavobacterium heparinum, was purified as described previously (Godavarti, R., and Sasisekharan, R (1996c) Biochem. Biophys. Res. Comm. 229, 770-777). The UV 232 nm assay to quantify native heparinase II enzymatic activity was similar to that reported for heparinase I (Bernstein, H., Yang, V. C., Cooney, C. L., Langer, R. (1988) Meth. Enzym. 137, 515-29). Briefly, the course of the reaction is monitored by measuring the increase in absorbance at 232 nm as a function of time under saturating substrate concentrations. With heparin as the substrate, the reaction was carried out at a concentration of 4 mg/ml in 50 mM sodium phosphate buffer, pH 7.3. With 2 mg/ml heparan sulfate, the reaction was measured in 50 mM sodium phosphate buffer, pH 6.9 (Sasisekharan, R., Moses, M. A., Nugent, M. A., Cooney, C. L., Langer, R. (1994) Proc. Natl. Acad. Sci., USA 91, 1524-1528). The temperature for all enzymatic activity measurements was kept constant at 35° C.
pCMB Modification Studies. […]. A control reaction mixture containing vehicle alone was run in tandem. At fixed time intervals, aliquots were withdrawn for the UV 232 nm enzyme activity assay.
(B) Reactivation of pCMB—modified heparinase II with DTT. Heparinase II (50 μg/ml) was incubated with 5 μM pCMB for 4 minutes and an aliquot was withdrawn to determine the fractional activity retained. DTT (10 mM) was then immediately added to the reaction mixture and to the control, which contained no pCMB. The mixtures were incubated at 4° C. Heparinase II activity was measured every half hour.
(C) Effect of salt on the inactivation of heparinase II by pCMB. Heparinase II was incubated with 5 μM pCMB in 50 mM sodium phosphate buffer, pH 7.0, with different salt concentrations (30, 60, 110, 180, 300, and 500 mM NaCl). A control mixture, which contained no additional salt, was also incubated with pCMB.
(D) Substrate protection of heparinase II against pCMB modification. Heparinase II (50 μg/ml) was preincubated with either 4 mg/ml heparin or 2 mg/ml heparan sulfate for 30 minutes prior to the addition of 5 μM pCMB and then the time course of inactivation was determined with the heparinase II activity assay.
(E) Quantification of pCMB—modified residues of heparinase II. Quantification of pCMB-modified residues of heparinase II was determined by difference spectra. […] The change in absorbance at 250 nm was monitored every 30 seconds for 10 minutes. The number of modified residues was determined using ∈=7,600 M^−1 cm^−1 (Boyer, P. D. (1952) J. Am. Chem. Soc. 76, 4331-4337). Heparinase II activity assays were completed under identical conditions with heparin as the substrate.
[…]. Less than 2% of total heparinase II enzymatic activity remained after this time interval. […]. Modified heparinase II was separated and concentrated. pCMB was removed via addition of DTT. [^3H]NEM was added to the reaction mixture; unreacted tritium was separated by RPHPLC and heparinase II was digested with Lys-C.

Series [3] is described as follows: Heparinase I activity as a function of calcium concentration (K0.5, calcium dependence). The format is biochemical. How it is done: (§2) Heparinase I Activity Assays: The UV 232 nm assay was used as described in Example 1. When measuring the enzyme activity as a function of heparin concentration, heparin concentrations varied from 0 to 4 mg/ml at a fixed calcium concentration of 5 mM (100 mM MOPS buffer/5 mM calcium acetate, pH 7.0). The data was then fit to an non-linear equation to determine Kcat and Km of heparinases I. Heparinase mutant activity was also investigated as a function of calcium concentration ranging from 0 to 10 mM. […] Activity is expressed as IU-μmol product formed/min using ∈=−3800-M^−1CM^−1.

Series [4] can be described thus: Heparinase I UV 232 nm activity assay as a function of heparin concentration (Kcat, Km). In kind it is biochemical, porcine. The conditions noted are these: for Kcat / Km: heparin 0 to 4 mg/ml, 5 mM calcium acetate, pH 7.0; for Kcat: 100 mM MOPS.
Description: as §1
Heparinase I Activity Assay. The UV 232 nm assay to quantify heparinase I enzymatic activity was similar to that described in Example 1. With heparin as the substrate, the reaction was carried out at a concentration of 4 mg/ml in 100 mM MOPS, 5 mM calcium acetate, pH 7.0. The temperature for all enzymatic activity measurements was kept constant at 30° C. For the inactivation kinetic profiles, activity was measured as outlined above at precise time points.
as §2

Series [5] is described as follows: Heparin-POROS affinity chromatography. The format is binding. The conditions noted are these: salt concentration at which enzyme elutes from heparin-POROS column; 10 mM Tris, 1 mM EDTA pH 7.0. How it is done:
Heparin-POROS chromatography: About 30-40 μg of -L r-heparinase I and the various mutant enzymes were injected into a heparin POROS (4.6 mm×100) column (PerSeptive BioSystems, Framingham, Mass.) connected to BioCAD system (PerSeptive BioSystems). Proteins were eluted using a linear gradient of […] NaCl in 10 min (10 mM Tris, 1 mM EDTA pH 7.0) and monitored at 210 nm. EDTA was added to chelate any calcium ions that may be present in the buffers.

Series [6] is described as follows: Fluorescence competition for calcium with probe rhod-5N. The conditions noted are these: apparent dissociation constant of rhod-5N for calcium with 3 μM enzyme; lower Kd′ means less binding of calcium by heparinase I. How it is done:
Fluorescence Competition. To determine the effect of mutations in CB-1 and CB-2 on the ability of heparinase I to bind calcium, mutants with a dramatic drop in activity were tested for their ability to bind calcium. To accomplish this, we examined the ability of heparinase I and mutants to compete for free calcium with the calcium-chelating fluorescence probe rhod-5N. The fluorescence probe rhod-5N was dissolved and diluted in buffer A (10 mM MOPS and 100 mM KCl, pH 6.5). Buffer A and the water used in the study were run through a Chelex Resin column to remove trace amounts of calcium. In the absence of calcium, rhod-5N is not fluorescent, however upon binding calcium rhod-5N is fluorescent with an emission λmax of 576 nm. Before titration, rhod-5N and heparinase I were added to a quartz cuvette such that the final concentration of rhod-5N in the cuvette was 0.3 μM and heparinase I is 3 μM. To this solution was added aliquots of a calcium solution (20 mM) which had been previously equilibrated with 0.3 μM rhod-5N and 3 μM heparinase I. The stock was added such that the calcium concentration in the cuvette was 50, 100, 200, 500, 1000, 5000 μM. After allowing the solution to come to equilibrium, the sample was scanned from 560 nm to 600 nm with the excitation wavelength fixed at […]. The plot of I/Imax versus [Ca^++] was fitted to a non-linear equation to determine the apparent Kd (Kd′) value. Thus, Kd′ values represent the apparent dissociation constants for the fluorescence probe rhod-5N. Control samples without heparinase I were included in the study.

Setting [7] is: calcium concentration at which half of the maximum enzyme activity was observed, calcium 0 to 10 mM, Table 4 first K0.5 column.

Residue numbers refer to the chain shown, from its start. Names may count otherwise. Read-outs that look alike come from different tables or passages of the source.

In the case of `CCOC(=O)OC(=O)OCC` [DEPC, diethylpyrocarbonate], in series [1] (2 mM DEPC, 10 minutes, towards heparin and heparan sulfate), the “loss of heparinase II enzymatic activity” value turned out to be 90%. The “number of histidines modified” value in series [1] (2 mM DEPC, ten minutes, pH 7.0) is given as “roughly three”. The values for the kinact/KI in series [1] (heparan sulfate as the substrate) and in series [1] (heparin as the substrate) were 4 M⁻¹ s⁻¹ and 2.67 M⁻¹ s⁻¹, respectively.
In the case of `NO` [Hydroxylamine], the “initial activity recovered by DEPC-modified enzyme” value in series [1] (8 hours, pH 7.0) is recorded as “about 90%”; in series [1] (approximately 1.5 hours, pH 7.0, after inactivation to 50%) it was “about 80%”. Moreover, in series [1] (pH 8), the “activity restored after DEPC modification” value was “over 70%”.
`O=C(O)c1cc[c]([Hg][Cl])cc1` [pCMB, p(chloromercuri)benzoate]: the “time to complete inactivation of heparinase II” value in series [2] (10 μM) is at most 15 min. Besides, in series [2] (20 μM pCMB), the loss of activity was found to be 98%. In addition, the “number of cysteines modified” value in series [2] (20 μM pCMB) was determined as 1.06 cysteines. Further, in series [2] (500 mM salt), the “first-order rate constant of inactivation” value worked out at 0.06 min⁻¹. For the same molecule, in series [2] (between 0 and 100 mM NaCl, 5 μM pCMB), the “drop of first order rate constant of inactivation” value was found to be 2 fold. Also, in series [2] (between 0 and 300 mM NaCl, 5 μM pCMB), the “decrease of first order rate constant of inactivation” value was “more than 4 fold”. Also, the “k, first-order rate constant of inactivation” value was determined as 0.16 min⁻¹ in series [2] (pH 5.0), 0.14 min⁻¹ in series [2] (pH 6.0), 0.21 min⁻¹ in series [2] (pH 7.0) and 0.24 min⁻¹ in series [2] (pH 8.0). In addition, in series [2] (pH 7.0, 4° C.), the “second-order rate constant for the inactivation” value amounted to 667 M⁻¹ s⁻¹. In series [2] (stoichiometric amount of pCMB, 15 minutes), the “total heparinase II enzymatic activity remaining” value is listed as “Less than 2%”. Also, the “pCMB inactivation (Table 1 value)” value in series [2] (substrate heparan sulfate, protection reagent heparan sulfate) turned out to be 0.09; in series [2] (substrate heparan sulfate, protection reagent heparin), 0.16; in series [2] (substrate heparan sulfate, protection reagent none), 0.21; in series [2] (substrate heparin, protection reagent heparan sulfate), 0.10; in series [2] (substrate heparin, protection reagent heparin), 0.16; in series [2] (substrate heparin, protection reagent none, 5 μM pCMB), 0.22.

B1: D212A/G213A/T216A: heparinase I CB-1 triple mutant (protein, UniProt Q05819 22-384, looked up, variant D212A G213A T216A)
Heparin lyase I: QQKKSGNIPYRVNVQADSAKQKAIIDNKWVAVGINKPYALQYDDKLRFNGKPSYRFELKAEDNSLEGYAAGETKGRTELSYSYATTNDFKKFPPSVYQNAQKLKTVYHYGKGICEQGSSRSYTFSVYIPSSFPDNATTIFAQWHGAPSRTLVATPEGEIKTLSIEEFLALYDRMIFKKNIAHDKVEKKDKAAKIAYVAGKPNGWKVEQGGYPTLAFGFSKGYFYIKANSDRQWLTDKADRNNANPENSEVMKPYSSEYKTSTIAYKMPFAQFPKDCWITFDVAIDWTKYGKEANTILKPGKLDVMMTYTKNKKPQKAHIVNQQEILIGRNDDDGYYFKFGIYRVGNSTVPVTYNLSGYSETAR
As to B1, the K0.5 in series [3] (Table 4 second K0.5 column) was 730 µM. For the same molecule, the K0.5 in series [3] (setting [7]) was determined as 730 µM. Further, in series [4], the “decrease in Kcat compared to wild-type r-heparinase I” value was around 5 fold, the Kcat is 20 s⁻¹ and the Km came to 3.16 µM. In addition, the NaCl in series [5] amounted to 495 mM. Also, the Kd in series [6] stood at 116 µM.

B2: E381A/T382A: heparinase I CB-2 double mutant (protein, UniProt Q05819 22-384, looked up, variant E381A T382A)
Heparin lyase I: B1 Heparin lyase I with A191D, A192G, A195T, E360A, T361A
Turning to B2, the K0.5 in series [3] (Table 4 second K0.5 column) and in series [3] (setting [7]) was 180 µM throughout. Moreover, in series [4], the Kcat stood at 10 s⁻¹. For the same molecule, the Km in series [4] came to 1.75 µM. Besides, the NaCl in series [5] is reported as 505 mM.

Source of the values: patent publication US7560106B2, “Rationally designed heparinases derived from heparinase I and II and methods of sequencing therewith” (Massachusetts Institute of Technology, priority 1998, dated 2009).
